This test deals with T1, COX-2 (Ovis aries, UniProt P79208).
T1 construct: gene PTGS2
T1 sequence (P79208 17-603): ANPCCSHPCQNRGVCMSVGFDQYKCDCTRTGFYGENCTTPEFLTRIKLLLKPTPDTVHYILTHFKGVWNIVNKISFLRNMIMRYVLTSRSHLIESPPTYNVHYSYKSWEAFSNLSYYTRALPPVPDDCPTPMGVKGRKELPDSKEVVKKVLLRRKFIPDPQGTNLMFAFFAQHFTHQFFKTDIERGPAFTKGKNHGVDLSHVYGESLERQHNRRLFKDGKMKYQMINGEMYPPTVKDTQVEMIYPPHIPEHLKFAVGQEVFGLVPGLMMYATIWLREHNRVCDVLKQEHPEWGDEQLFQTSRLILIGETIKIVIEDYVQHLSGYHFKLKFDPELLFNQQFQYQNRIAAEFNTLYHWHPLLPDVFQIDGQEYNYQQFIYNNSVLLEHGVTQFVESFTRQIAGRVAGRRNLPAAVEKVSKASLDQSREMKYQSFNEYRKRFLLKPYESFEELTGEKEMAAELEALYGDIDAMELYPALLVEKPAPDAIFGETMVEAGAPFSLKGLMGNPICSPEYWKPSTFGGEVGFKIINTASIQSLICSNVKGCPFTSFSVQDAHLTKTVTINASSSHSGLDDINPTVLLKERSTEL
The test is described as follows: COX (ovine) inhibitor screening kit. Type of test: biochemical.
Regarding `COc1cc(OC)c2c(O)c3c(=O)cc(C)oc3c(-c3c(O)cc4cc5c(c(O)c4c3OC)C(=O)CC(C)(O)O5)c2c1` (stereo not drawn) [compound 3, aurasperone F], 11.1 µM corresponded to half-maximal inhibition (IC50).
Consider `COc1cc(OC)c2c(O)c3c(c(-c4c(O)cc5cc6c(c(O)c5c4OC)C(=O)CC(C)(O)O6)c2c1)OC(C)(O)CC3=O` (stereo not drawn) [compound 6, aurasperone C], for which half-maximal inhibition (IC50) was put at 4.2 µM.
For `COc1cc(OC)c2c(O)c3c(=O)cc(C)oc3c(-c3c(O)cc4cc(O)c5c(=O)cc(C)oc5c4c3OC)c2c1` [compound 8, asperpyrone A] the value was 6.4 µM.
